From paper PMC11467737, “Osteocalcin binds to a GPRC6A Venus fly trap allosteric site to positively modulate GPRC6A signaling” (FASEB BioAdvances, 2024)

Legend:
human GPRC6A isoform 3 = target: T1, human GPRC6A isoform 3 (Homo sapiens, UniProt Q5T6X5); assay: cAMP accumulation in HEK-293 cells transfected with human GPRC6A isoform 3; assay type: cell-based; settings: HEK-293 transfected with GPRC6A isoform 3, 40 min
T1 construct: expressed in transfected cells; host or cells: HEK-293
T1 sequence (Q5T6X5 19-855 isoform Q5T6X5-3 limits assumed): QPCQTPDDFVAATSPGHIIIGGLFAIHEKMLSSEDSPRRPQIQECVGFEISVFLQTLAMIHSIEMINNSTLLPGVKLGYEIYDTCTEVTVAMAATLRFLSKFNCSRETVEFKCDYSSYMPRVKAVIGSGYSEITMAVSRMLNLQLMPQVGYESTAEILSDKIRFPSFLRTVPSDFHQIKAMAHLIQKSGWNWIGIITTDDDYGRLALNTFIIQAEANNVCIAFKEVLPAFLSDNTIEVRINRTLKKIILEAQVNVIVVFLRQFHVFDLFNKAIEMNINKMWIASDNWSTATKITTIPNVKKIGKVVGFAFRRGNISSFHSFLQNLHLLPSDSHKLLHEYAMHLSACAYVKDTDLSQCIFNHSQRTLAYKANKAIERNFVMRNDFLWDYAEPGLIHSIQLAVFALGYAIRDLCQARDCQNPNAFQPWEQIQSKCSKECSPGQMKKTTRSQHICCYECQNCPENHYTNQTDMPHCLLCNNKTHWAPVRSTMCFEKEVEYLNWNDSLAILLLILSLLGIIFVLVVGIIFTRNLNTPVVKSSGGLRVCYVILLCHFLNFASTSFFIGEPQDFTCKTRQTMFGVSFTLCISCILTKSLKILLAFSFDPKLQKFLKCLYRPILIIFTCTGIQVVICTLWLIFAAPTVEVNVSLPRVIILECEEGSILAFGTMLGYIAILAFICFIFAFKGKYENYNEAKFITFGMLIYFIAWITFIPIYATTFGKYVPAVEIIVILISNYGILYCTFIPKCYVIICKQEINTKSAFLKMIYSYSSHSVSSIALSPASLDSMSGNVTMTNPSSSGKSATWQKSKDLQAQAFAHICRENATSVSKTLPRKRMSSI
Protocol: (§1) HEK‐293 transfected with human GPRC6A isoform cDNA plasmids cells (10^5 cells/well)[30] were cultured in 24‐well plates in DMEM supplemented with 10% fetal bovine serum and 1% penicillin/streptomycin (100 U/mL of penicillin and 100 μg/mL of streptomycin) for 48 h followed by 4 h incubation in DMEM/F12 containing 0.1% BSA and 0.5 mM IBMX to achieve quiescence and preventing cAMP degradation. Quiescent cells were treated with vehicle control, various ligands at concentration as indicated for 40 min at 37°C. Then, the reaction was stopped, and the cells lysed with 0.5 mL 0.1 N HCl. cAMP levels were measured by using Cyclic AMP EIA kit (Cayman Chemical; Ann Arbor, MA, USA) following the manufacture's protocol.

human GPRC6A isoform 2 = target: T2, human GPRC6A isoform 2 (Homo sapiens, UniProt Q5T6X5); assay: cAMP accumulation in HEK-293 cells transfected with human GPRC6A isoform 2; assay type: cell-based; settings: HEK-293 transfected with GPRC6A isoform 2; presence of 1 mM calcium; 40 min; Figure 2A
T2 construct: expressed in transfected cells; host or cells: HEK-293
T2 sequence (Q5T6X5 19-751 isoform Q5T6X5-2 limits assumed): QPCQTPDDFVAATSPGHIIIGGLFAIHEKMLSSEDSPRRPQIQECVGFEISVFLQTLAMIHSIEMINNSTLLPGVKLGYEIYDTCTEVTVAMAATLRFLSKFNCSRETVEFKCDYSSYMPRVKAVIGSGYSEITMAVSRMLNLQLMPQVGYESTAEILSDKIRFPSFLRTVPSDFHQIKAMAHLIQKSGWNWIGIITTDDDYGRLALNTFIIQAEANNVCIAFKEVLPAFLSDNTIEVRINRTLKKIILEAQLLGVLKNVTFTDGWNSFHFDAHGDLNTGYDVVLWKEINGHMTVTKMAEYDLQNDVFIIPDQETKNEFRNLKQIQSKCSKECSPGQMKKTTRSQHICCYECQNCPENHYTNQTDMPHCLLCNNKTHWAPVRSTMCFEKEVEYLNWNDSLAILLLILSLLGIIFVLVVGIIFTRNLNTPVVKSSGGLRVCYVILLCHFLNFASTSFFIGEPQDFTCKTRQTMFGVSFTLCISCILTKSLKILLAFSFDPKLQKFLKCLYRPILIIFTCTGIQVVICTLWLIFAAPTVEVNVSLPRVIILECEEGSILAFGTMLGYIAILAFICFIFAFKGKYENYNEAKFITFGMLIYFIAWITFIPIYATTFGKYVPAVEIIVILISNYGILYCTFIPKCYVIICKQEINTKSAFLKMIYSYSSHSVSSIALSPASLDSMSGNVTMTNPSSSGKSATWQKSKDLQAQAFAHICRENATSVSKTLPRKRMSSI
Protocol: as §1

human GPRC6A isoform 1 [1] = target: T3, human GPRC6A isoform 1 (Homo sapiens, UniProt Q5T6X5); assay: ERK activation (phospho-ERK/total ERK ELISA) in HEK-293 cells transfected with human GPRC6A isoform 1 (wild-type); assay type: cell-based; settings: fragments at 20 nM; HEK-293 with pcDNA3-hGPRC6A; 15 min; Figure 3B / S5B
T3 construct: expressed in transfected cells; host or cells: HEK-293, pcDNA3-hGPRC6A
T3 sequence (Q5T6X5 19-926): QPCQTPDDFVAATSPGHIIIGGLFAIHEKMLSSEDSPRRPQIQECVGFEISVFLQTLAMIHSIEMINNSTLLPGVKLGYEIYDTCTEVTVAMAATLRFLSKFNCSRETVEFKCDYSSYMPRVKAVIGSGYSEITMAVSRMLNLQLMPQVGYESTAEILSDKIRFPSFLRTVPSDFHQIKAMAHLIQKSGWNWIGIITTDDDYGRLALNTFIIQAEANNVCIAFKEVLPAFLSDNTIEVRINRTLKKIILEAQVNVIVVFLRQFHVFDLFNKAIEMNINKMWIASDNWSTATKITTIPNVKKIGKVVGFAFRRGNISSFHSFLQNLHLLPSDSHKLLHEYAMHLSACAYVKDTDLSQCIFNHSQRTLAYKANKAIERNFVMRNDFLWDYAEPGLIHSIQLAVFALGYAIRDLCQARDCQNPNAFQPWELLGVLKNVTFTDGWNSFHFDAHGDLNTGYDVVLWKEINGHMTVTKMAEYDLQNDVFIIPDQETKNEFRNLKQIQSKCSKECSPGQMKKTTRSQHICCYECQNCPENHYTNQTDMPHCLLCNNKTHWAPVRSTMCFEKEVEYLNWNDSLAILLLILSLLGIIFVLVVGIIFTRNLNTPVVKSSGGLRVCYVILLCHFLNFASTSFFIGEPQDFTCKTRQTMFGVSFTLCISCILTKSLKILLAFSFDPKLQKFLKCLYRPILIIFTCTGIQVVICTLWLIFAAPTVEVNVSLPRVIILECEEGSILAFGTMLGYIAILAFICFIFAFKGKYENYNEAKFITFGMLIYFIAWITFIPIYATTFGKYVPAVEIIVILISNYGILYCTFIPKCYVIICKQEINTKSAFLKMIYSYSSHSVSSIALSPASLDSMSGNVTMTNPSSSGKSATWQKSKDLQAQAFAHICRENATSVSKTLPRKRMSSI
Protocol: All culture reagents were from Invitrogen (Waltham, MA, USA). Human embryonic kidney HEK‐293 cells were obtained from American Type Culture Collection and cultured in DMEM medium supplemented with 10% fetal bovine serum and 1% Penicillin/Streptomycin (P/S). Briefly, HEK‐293 cells transfected with/without human GPRC6A isoforms cDNA plasmids were starved by overnight incubation in serum‐free DMEM/F12 containing 0.1% bovine serum albumin (BSA) and stimulated with various ligands at different doses. […]

human GPRC6A isoform 1 [2] = target: T3, human GPRC6A isoform 1; assay: cAMP accumulation in HEK-293 cells transfected with human GPRC6A isoform 1 (wild-type, full length); assay type: cell-based; settings: fragments at 20 nM; HEK-293 with pcDNA3-hGPRC6A; 40 min; Figure 3C / S5C
Protocol: as §1

GPRC6A = test system: GPRC6A; parameters: method as in PMID 32147363; settings: cited from earlier work
mouse model = test system: mouse model; parameters: method as in PMID 32147363; settings: oral or intraperitoneal administration to a mouse model; cited from earlier work

N=C(N)NCCC[C@H](N)C(=O)O [L‐Arg, L‐Arginine]
L-Arg stimulation of cAMP accumulation (human GPRC6A isoform 3; presence of 1 mM calcium, Figure 2A): retained responsiveness
L-Arg stimulation of cAMP accumulation (human GPRC6A isoform 2): loss of L‐Arg stimulation of cAMP

C[C@]12CC[C@H]3[C@@H](CCC4=CC(=O)CC[C@@]43C)[C@@H]1CC[C@@H]2O [testosterone]
Testosterone (T) activation, cAMP accumulation (human GPRC6A isoform 3; Figure S4): loss responsive

APVPYPDPLEPR [Ocn 8–19, synthesized human Ocn fragment, 12 aa]
ERK phosphorylation by synthesized human Ocn fragments (human GPRC6A isoform 1 [1]): activated GPRC6A
cAMP accumulation by synthesized human Ocn fragments (human GPRC6A isoform 1 [2]): activated GPRC6A

WLGAPVPYPDPLEPR
Activation of GPRC6A in vitro (GPRC6A): activate GPRC6A in vitro
Effect on fatty liver disease and insulin resistance (mouse model): improve fatty liver disease and insulin resistance
